Measurements taken from ChEMBL document CHEMBL5247664, “Structure-activity relationship of BMS906024 derivatives for Cryptosporidium parvum growth inhibition” (Bioorg Med Chem Lett, 2023).

Legend:
Assay type in all cases: functional, organism-based
[1] = test system: Cryptosporidium parvum; assay: Antiparasitic activity against Cryptosporidium parvum assessed as parasitic growth inhibition measured for 24 hrs
[2] = test system: Cryptosporidium parvum; assay: Antiparasitic activity against Cryptosporidium parvum infected in human HCT-8 cells assessed as parasitic growth inhibition measured for 48 hrs by fluorescence based microscopic analysis; details: for EC50: HCT-8, 48 h; for EC90: HCT-8, time 48 hrs
[3] = test system: Cryptosporidium parvum; assay: Antiparasitic activity against Cryptosporidium parvum infected in human HCT-8 cells assessed as parasitic growth inhibition incubated for 45 mins followed by compound washout further infected in cells and measured after 48 hrs by microscopic analysis
[4] = test system: Cryptosporidium parvum; assay: Antiparasitic activity against Cryptosporidium parvum assessed as parasitic growth inhibition

Compound	EC50 [1]	EC50 [2]	EC90 [2]	EC50 [3]	EC50 [4]
C[C@H](NC(=O)Cc1cc(F)cc(F)c1)C(=O)N[C@H](C(=O)OC(C)(C)C)c1ccccc1	12500 nM				
CN1C(=O)[C@H](NC(=O)[C@H](CCC(F)(F)F)CC(=O)N2CCCCC2)N=C(c2ccccc2)c2cc(Cl)c(OC3COC3)cc21		5470 nM	12800 nM		
CN1C(=O)[C@H](NC(=O)[C@H](CCC(F)(F)F)CC(=O)N2CCCCC2)N=C(c2ccccc2)c2ccc(OC3COC3)cc21		2290 nM	4900 nM		
COc1ccc2c(c1)N(C)C(=O)[C@@H](NC(=O)[C@H](CCC(F)(F)F)CC(=O)N1CCCCC1)N=C2c1ccccc1		31 nM	66 nM		
CN1C(=O)[C@@H](NC(=O)[C@H](CCC(F)(F)F)CC(=O)N2CCCCC2)N=C(c2ccccc2)c2cc(Cl)c(OC3COC3)cc21		320 nM	960 nM		
CN1C(=O)[C@@H](NC(=O)[C@H](CCC(F)(F)F)CC(=O)N2CCCCC2)N=C(c2ccccc2)c2ccc(Oc3ccccc3)cc21		25 nM	55 nM		
CCCNC(=O)C[C@@H](CCC(F)(F)F)C(=O)N[C@H]1N=C(c2ccccc2)c2ccc(OC3COC3)cc2N(C)C1=O		350 nM	970 nM		
CCCNC(=O)C[C@H](CCC(F)(F)F)C(=O)N[C@H]1N=C(c2ccccc2)c2ccccc2N(C)C1=O		> 25000 nM	> 25000 nM		
CCCNC(=O)CCC(=O)N[C@H]1N=C(c2ccccc2)c2ccccc2N(C)C1=O		> 25000 nM	> 25000 nM		
CN1C(=O)[C@@H](NC(=O)[C@H](CCC(F)(F)F)CC(N)=O)N=C(c2ccccc2)c2ccccc21		> 25000 nM	> 25000 nM		
CN1C(=O)[C@@H](NC(=O)[C@H](CCC(F)(F)F)CC(=O)N2CCCCC2)N=C(c2ccccc2)c2ccc(OC3COC3)cc21		110 nM	210 nM		
CCN(CC)C(=O)C[C@@H](CCC(F)(F)F)C(=O)N[C@H]1N=C(c2ccccc2)c2ccccc2N(C)C1=O		110 nM	310 nM	500 nM	
CN1C(=O)[C@@H](NC(=O)[C@H](CCC(F)(F)F)CC(=O)N2CCCCC2)N=C(c2ccccc2)c2ccccc21		6.4 nM	16 nM		
CN1C(=O)[C@@H](NC(=O)[C@H](CCC(F)(F)F)CC(=O)N2CCOCC2)N=C(c2ccccc2)c2ccccc21		52 nM	100 nM		
CCCNC(=O)C(C)(C)CC(=O)N[C@H]1N=C(c2ccccc2)c2ccccc2N(C)C1=O		> 25000 nM	> 25000 nM		
CCCNC(=O)C[C@@H](CCC(F)(F)F)C(=O)N[C@@H]1N=C(c2ccccc2)c2ccc(OC3COC3)cc2N(C)C1=O		> 25000 nM	> 25000 nM		
CCCNC(=O)[C@@H](CCC(F)(F)F)CC(=O)N[C@H]1N=C(c2ccccc2)c2ccccc2N(C)C1=O		> 25000 nM	> 25000 nM		
CCCNC(=O)C[C@@H](CCC(F)(F)F)C(=O)N[C@H]1N=C(c2ccccc2)c2ccc(OC)cc2N(C)C1=O		81 nM	150 nM		
CCNC(=O)C[C@@H](CCC(F)(F)F)C(=O)N[C@H]1N=C(c2ccccc2)c2ccccc2N(C)C1=O		280 nM	610 nM		
CN1C(=O)[C@H](NC(=O)[C@H](CCC(F)(F)F)CC(=O)N2CCCCC2)N=C(c2ccccc2)c2ccc(OC3CCC3)cc21		2520 nM	11100 nM		
CN1C(=O)[C@@H](NC(=O)C[C@H](CCC(F)(F)F)C(N)=O)N=C(c2ccccc2)c2ccccc21		25000 nM	> 25000 nM		
CCCNC(=O)CC(C)(C)C(=O)N[C@H]1N=C(c2ccccc2)c2ccccc2N(C)C1=O		> 25000 nM	> 25000 nM		
CN1C(=O)[C@H](NC(=O)[C@H](CCC(F)(F)F)CC(=O)N2CCCCC2)N=C(c2ccccc2)c2ccc(Oc3ccccc3)cc21		1690 nM	3610 nM		
CCC[C@H](CC(=O)N1CCCC1)C(=O)N[C@H]1N=C(c2ccccc2)c2ccccc2N(C)C1=O		110 nM	230 nM		
CCCN(CCC)C(=O)C[C@@H](CCC(F)(F)F)C(=O)N[C@H]1N=C(c2ccccc2)c2ccccc2N(C)C1=O		1450 nM	2790 nM		
CN1C(=O)[C@@H](NC(=O)[C@H](CCC(F)(F)F)CC(=O)N2CCCCC2)N=C(c2ccccc2)c2ccc(OC3CCC3)cc21		77 nM	160 nM		
CCCNC(=O)C[C@@H](CCC(F)(F)F)C(=O)N[C@H]1N=C(c2ccccc2)c2ccccc2N(C)C1=O		18 nM	56 nM		
CN1C(=O)[C@@H](NC(=O)[C@H](CCC(F)(F)F)CC(=O)OC(C)(C)C)N=C(c2ccccc2)c2ccccc21		550 nM	1120 nM		
CN1C(=O)[C@@H](NC(=O)[C@H](CCC(F)(F)F)[C@H](CCC(F)(F)F)C(N)=O)N=C(c2ccccc2)c2ccccc21 [OSUGACESTAT]		1.8 nM	2.3 nM		1.8 nM
CC(C)[C@H](O)C(=O)N[C@@H](C)C(=O)N[C@@H]1C(=O)N(C)CCc2ccccc21 [SEMAGACESTAT]	4200 nM				
